Like-named read-outs stand apart in the source and are kept apart here.
Assays:
human H3 receptor [1] = target: T1, human H3 receptor (Homo sapiens, UniProt Q9Y5N1); test: H3 affinity, radioligand binding assay employing [3H](R)-α-methylhistamine
Text: (§1) In one aspect, H3 affinity (Ki) and inhibition (IC50) can be determined in 5-point concentration response curves. Using data obtained from such methods, SAR can be established.

human H3 receptor [2] = target: T1, human H3 receptor; test: H3 antagonist activity / inhibition (IC50); assay type: biochemical
Text: as §1

[3] = test system: calcium and potassium ion channels, including hERG; test: MDS Pharma Services radioligand binding panel, initial screen at single 10 μM concentration: ion channels; conditions: human, read-out: inhibition of a number of calcium and potassium ion channels, including hERG
Description: (§2) Multiple screening avenues were pursued to identify the biological activity of dispyrin. Dispyrin was submitted to the screening deck of the Molecular Library Screening Network (MLSCN) and was evaluated against several GPCR targets (M1, M4, D1/D5, mGluR5, mGluR4) in agonist, antagonist and potentiator mode. Utilizing panels of radioligand binding assays from several companies, dispyrin was evaluated against >200 discrete molecular targets over the course of two months. The MDS Pharma Services panel identified multiple activities for dispyrin. […] Other modest activities at the 50-60% range at 10 u.M included other GPCRs and ion channels, but none with significant activity (no Kis or IC50s<10 μM).

[4] = test system: other GPCRs and ion channels; test: MDS Pharma Services radioligand binding panel, initial screen at single 10 μM concentration: other targets; conditions: at 10 μM; none with significant activity (no Kis or IC50s<10 μM)
Description: as §2

[5] = 5-point concentration response curves, read-out: H3 Ki
[6] = 5-point concentration response curves, read-out: H3 IC50

T1 sequence (Q9Y5N1 whole entry): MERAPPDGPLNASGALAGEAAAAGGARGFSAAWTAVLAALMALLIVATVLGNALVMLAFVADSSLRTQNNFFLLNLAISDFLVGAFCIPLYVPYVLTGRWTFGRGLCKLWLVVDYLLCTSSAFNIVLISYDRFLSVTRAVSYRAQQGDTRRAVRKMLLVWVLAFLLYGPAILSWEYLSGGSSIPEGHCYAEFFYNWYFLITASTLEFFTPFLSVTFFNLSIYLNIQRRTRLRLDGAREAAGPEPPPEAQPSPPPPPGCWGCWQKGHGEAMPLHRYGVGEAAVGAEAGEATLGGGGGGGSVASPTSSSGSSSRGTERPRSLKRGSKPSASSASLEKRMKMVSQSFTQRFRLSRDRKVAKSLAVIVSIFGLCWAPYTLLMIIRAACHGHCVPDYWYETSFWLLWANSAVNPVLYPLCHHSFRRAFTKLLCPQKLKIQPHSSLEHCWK

Row | Compound | Ki (human H3 receptor [1]; [5]) [µM] | IC50 (human H3 receptor [2]; [6]) [µM] | also measured
1 | CN(C)CCCOc1ccc(CCNC(=O)c2ccc[nH]2)cc1Br [N-(3-bromo-4-(3-(dimethylamino)propoxy)phenethyl)-1H-pyrrole-2-carboxamide] | 1.3 | 2.9 | 
2 | CN(C)CCCOc1ccc(CCNC(=O)c2cc(Br)cs2)cc1Br [4-bromo-N-(3-bromo-4-(3-(dimethylamino)propoxy)phenethyl)thiophene-2-carboxamide] | 1.6 | 3.6 | 
3 | O=C(NCCc1ccc(OCCN2CCCC2)c(Br)c1)c1cnco1 [N-(3-bromo-4-(2-(pyrrolidin-1-yl)ethoxy)phenethyl)oxazole-5-carboxamide] | 0.037 | 0.083 | 
4 | C[C@H]1CCCN1CCOc1ccc(CCNC(=O)c2cc(Br)cs2)cc1Br [(S)-4-bromo-N-(3-bromo-4-(2-(2-methylpyrrolidin-1-yl)ethoxy)phenethyl)thiophene-2-carboxamide] | 0.33 | 0.75 | 
5 | Cn1cccc1C(=O)NCCc1ccc(OCCN2CCCC2)c(Br)c1 [N-(3-bromo-4-(2-(pyrrolidin-1-yl)ethoxy)phenethyl)-1-methyl-1H-pyrrole-2-carboxamide] | 0.13 | 0.39 | 
6 | N-(3-bromo-4-(2-(pyrrolidin-1- yl)ethoxy)phenethyl)thiazole-5-carboxamide | 0.032 | 0.072 | 
7 | O=C(NCCc1ccc(OCCN2CCCC2)c(Br)c1)c1nccs1 [N-(3-bromo-4-(2-(pyrrolidin-1-yl)ethoxy)phenethyl)thiazole-2-carboxamide] | 0.116 | 0.26 | 
8 | CN1CCCC(COc2ccc(CCNC(=O)c3ccc[nH]3)cc2Br)C1 (stereo not shown) [N-(3-bromo-4-((1-methylpiperidin-3-yl)methoxy)phenethyl)-1H-pyrrole-2-carboxamide] | 1.5 | 3.6 | 
9 | O=C(NCCc1ccc(OCCN2CCCC2)c(Br)c1)c1cccc(Cl)c1 [N-(3-bromo-4-(2-(pyrrolidin-1-yl)ethoxy)phenethyl)-3-chlorobenzamide] | 0.25 | 0.55 | 
10 | O=C(NCCc1ccc(OCCN2CCCC2)c(Br)c1)c1cccc(Br)c1 [3-bromo-N-(3-bromo-4-(2-(pyrrolidin-1-yl)ethoxy)phenethyl)benzamide] | 0.21 | 0.45 | 
11 | O=C(NCCc1ccc(OCCN2CCCC2)c(Br)c1)c1ccc(Br)o1 [5-bromo-N-(3-bromo-4-(2-(pyrrolidin-1-yl)ethoxy)phenethyl)furan-2-carboxamide] | 0.17 | 0.39 | 
12 | CN(C)CCCOc1ccc(CCNC(=O)c2ccc(Br)o2)cc1Br [5-bromo-N-(3-bromo-4-(3-(dimethylamino)propoxy)phenethyl)furan-2-carboxamide] | 2.2 | 4.8 | 
13 | CN(C)CCCOc1ccc(CCNC(=O)c2cc(Br)c[nH]2)cc1Br [dispyrin, 4-bromo-N-(3-bromo-4-(3-(dimethylamino)propoxy)phenethyl)-1H-pyrrole-2-carboxamide] | 1.1 | 2.4 | Ki (human H3 receptor [1]; radioligand binding assay employing [3H](R)-α-methylhistamine, read-out: Ki, affinity for the human H3 receptor): 1.04 µM; IC50 (human H3 receptor [2]; read-out: IC50, human H3 antagonist): 2.35 µM; IC50 (human H3 receptor [2]; text of b259, read-out: IC50, human H3 antagonist): 2.35 µM; inhibition at 10 µM [3]: 50 to 60%; other modest activities (other GPCRs and ion channels) [4]: 50-60%
14 | O=C(NCCc1ccc(OCCN2CCCC2)c(Br)c1)c1nnc[nH]1 [N-(3-bromo-4-(2-(pyrrolidin-1-yl)ethoxy)phenethyl)-4H-1,2,4-triazole-3-carboxamide] | 0.43 | 0.97 | 
15 | CN1CCCC(COc2ccc(CCNC(=O)c3cc(Br)cs3)cc2Br)C1 (stereo not shown) [4-bromo-N-(3-bromo-4-((1-methylpiperidin-3-yl)methoxy)phenethyl)thiophene-2-carboxamide] | 1.2 | 1.7 | 
16 | O=C(NCCc1ccc(OCCN2CCCC2)c(Br)c1)c1cc(Br)cs1 [4-bromo-N-(3-bromo-4-(2-(pyrrolidin-1-yl)ethoxy)phenethyl)thiophene-2-carboxamide] | 0.08 | 0.18 | 
17 | CN1CCCC(COc2ccc(CCNC(=O)c3ccc(Br)o3)cc2Br)C1 (stereo not shown) [5-bromo-N-(3-bromo-4-((1-methylpiperidin-3-yl)methoxy)phenethyl)furan-2-carboxamide] | 2.1 | 4.5 | 

Row | Compound | Ki (human H3 receptor [1]; [5]) [µM] | IC50 (human H3 receptor [2]; [6]) [µM] | also measured
18 | O=C(NCCc1ccc(OCCN2CCCC2)c(Br)c1)c1ccc[nH]1 [N-(3-bromo-4-(2-(pyrrolidin-1-yl)ethoxy)phenethyl)-1H-pyrrole-2-carboxamide] | 0.15 | 0.38 | 
19 | CN(C)CCOc1ccc(CCNC(=O)c2ccc(Br)o2)cc1Br [5-bromo-N-(3-bromo-4-(2-(dimethylamino)ethoxy)phenethyl)furan-2-carboxamide] | 2.7 | 5.9 | 
20 | O=C(NCCc1ccc(OCCN2CCCC2)c(Br)c1)c1cccc(C(F)(F)F)n1 [N-(3-bromo-4-(2-(pyrrolidin-1-yl)ethoxy)phenethyl)-6-(trifluoromethyl)picolinamide] | 0.27 | 0.56 | 
21 | O=C(NCCc1ccc(OCCN2CCCC2)c(Br)c1)c1cccc(C(F)(F)F)c1 [N-(3-bromo-4-(2-(pyrrolidin-1-yl)ethoxy)phenethyl)-3-(trifluoromethyl)benzamide] | 0.44 | 0.98 | 
22 | O=C(NCCc1ccc(OCCN2CC[C@H](F)C2)c(Br)c1)c1cc(Br)cs1 [(S)-4-bromo-N-(3-bromo-4-(2-(3-fiuoropyrrolidin-1-yl)ethoxy)phenethyl)thiophene-2-carboxamide] | 1.1 | 2.5 | 
23 | CN1CCCC(COc2ccc(CCNC(=O)c3cccn3C)cc2Br)C1 (stereo not shown) [N-(3-bromo-4-((1-methylpiperidin-3-yl)methoxy)phenethyl)-1-methyl-1H-pyrrole-2-carboxamide] | 0.91 | 2.1 | 
24 | CN(C)CCOc1ccc(CCNC(=O)c2cccn2C)cc1Br [N-(3-bromo-4-(2-(dimethylamino)ethoxy)phenethyl)-1-methyl-1H-pyrrole-2-carboxamide] | 2.1 | 4.5 | 
25 | O=C(NCCc1ccc(OCCN2CC[C@@H](F)C2)c(Br)c1)c1cc(Br)cs1 | 1.1 | 2.1 | 
26 | C[C@@H]1CCCN1CCOc1ccc(CCNC(=O)c2cc(Br)cs2)cc1Br [(R)-4-bromo-N-(3-bromo-4-(2-(2-methylpyrrolidin-1-yl)ethoxy)phenethyl)thiophene-2-carboxamide] | 0.31 | 0.71 | 
27 | O=C(NCCc1ccc(OCCN2CCCC2)c(Br)c1)c1cc(Br)c[nH]1 [4-bromo-N-(3-bromo-4-(2-(pyrrolidin-1-yl)ethoxy)phenethyl)-1H-pyrrole-2-carboxamide] | 0.19 | 0.43 | 
28 | O=C(NCc1ccc(OCCN2CCCC2)c(Cl)c1)c1cc(Br)cs1 [4-bromo-N-(3-chloro-4-(2-(pyrrolidin-1-yl)ethoxy)benzyl)thiophene-2-carboxamide] | 1.1 | 2.4 | 
29 | CN(C)CCOc1ccc(CCNC(=O)c2cc(Br)cs2)cc1Br [4-bromo-N-(3-bromo-4-(2-(dimethylamino)ethoxy)phenethyl)thiophene-2-carboxamide] | 0.67 | 1.5 | 
30 | CN(C)CCCOc1ccc(CCNC(=O)c2cccn2C)cc1Br [N-(3-bromo-4-(3-(dimethylamino)propoxy)phenethyl)-1-methyl-1H-pyrrole-2-carboxamide] | 1.7 | 3.9 | 
31 | O=C(NCCc1ccc(OCCN2CCCC2)c(Cl)c1)c1cc(Br)cs1 [4-bromo-N-(3-chloro-4-(2-(pyrrolidin-1-yl)ethoxy)phenethyl)thiophene-2-carboxamide] | 0.16 | 0.35 | 
32 | CN(C)CCOc1ccc(CCNC(=O)c2cc(Br)c[nH]2)cc1Br [4-bromo-N-(3-bromo-4-(2-(dimethylamino)ethoxy)phenethyl)-1H-pyrrole-2-carboxamide] | 1.6 | 3.7 | 
33 | CN1CCCC(COc2ccc(CCNC(=O)c3cc(Br)c[nH]3)cc2Br)C1 (stereo not shown) [4-bromo-N-(3-bromo-4-((1-methylpiperidin-3-yl)methoxy)phenethyl)-1H-pyrrole-2-carboxamide] | 1.3 | 2.9 | 
34 | CN(C)CCOc1ccc(CCNC(=O)c2ccc[nH]2)cc1Br [N-(3-bromo-4-(2-(dimethylamino)ethoxy)phenethyl)-1H-pyrrole-2-carboxamide] | 1.5 | 3.4 | 

— US20100035929A1, “UNNATURAL DISPYRIN ANALOGUES, PREPARATION AND USES THEREOF” (priority 2008, published 2010)
